In US20230117034A1, “PYRAZOLOTRIAZINES” (Bayer Aktiengesellschaft, priority 2019, published 2023):

How the values were obtained:
CDK12/CycK = CDK12/CycK (Homo sapiens, UniProt Q9NYV4); assay: CDK12/CycK high ATP kinase assay (TR-FRET, 2 mM ATP); assay type: biochemical; conditions: 2 mM ATP (high ATP); median; read-out: CDK12/CyclinK, 2 mM ATP (high ATP), IC50-[mol/l] (median)
Method: In the context of the present invention, the term “IC50 CDK12 hATP” refers to the IC50 values obtained according to the assay described in this section (2.2) herein below, i.e. the IC50 values for the inhibition of CDK12 at high (2 mM) ATP.
CDK12/CycK-inhibitory activity of compounds of the present invention at 2 millimol/L adenosine-tri-phosphate (ATP) was quantified employing the TR-FRET (TR-FRET=Time Resolved Fluorescence Energy Transfer) based CDK12/CycK activity inhibition assay as described in the following paragraphs.
A complex of human recombinant CDK12 and human recombinant CycK (both N-terminally His-tagged, expression and purification as described above) was used as enzyme. As substrate for the kinase reaction biotinylated peptide biotin-Ahx-KFELLPTPPLSPSRRSGL (C-terminus in amid form) was used which can be purchased e.g. form the company Biosyntan (Berlin-Buch, Germany).
For the assay 50 nanoL of a 100 fold concentrated solution of the test compound in DMSO was pipetted into either a black low volume 384 well microtiter plate or a black 1536 well microtiter plate (both Greiner Bio-One, Frickenhausen, Germany), 2 microL of a solution of CDK12/CycK in aqueous assay buffer [25 millimol/L HEPES pH 7.5, 20 millimol/L MgCl2, 5 millimol/L β-glycerophosphate, 2 millimol/L EGTA, 1.0 millimol/L dithiothreitol, 0.01% (v/v) Nonidet-P40 (Sigma), 0.01% (w/v) bovine serum albumin] were added and the mixture was incubated for 15 min at 22° C. to allow pre-binding of the test compounds to the enzyme before the start of the kinase reaction. Then the kinase reaction was started by the addition of 3 microL of a solution ATP (3.33 millimol/L=>final conc. in the 5 microL assay volume is 2 millimol/L) and substrate (1.67 micromol/L=>final conc. in the 5 microL assay volume is 1 micromol/L) in assay buffer and the resulting mixture was incubated for a reaction time of 60 min at 22° C. The concentration of CDK12/CycK was adjusted depending of the activity of the enzyme lot and was chosen appropriate to have the assay in the linear range, typical concentrations were about 0.75 nanomol/L. The reaction was stopped by the addition of 3 microL of a solution of TR-FRET detection reagents (125 nanomol/L streptavidine-XL665 [Cisbio Bioassays, Codolet, France] and 0.67 nanomol/L anti-Phospho-c-Myc (Ser 62) (E1J4K)-antibody from Cell Signalling [#13748] and 2 nanomol/L LANCE EU-W1024 labeled anti-rabbit IgG antibody [Perkin-Elmer, product no. 0083]) in an aqueous EDTA-solution (133 millimol/L EDTA, 0.27% (w/v) bovine serum albumin in 66.7 millimol/L HEPES pH 7.5).
The resulting mixture was incubated 1 h at 22° C. to allow the formation of complex between the phosphorylated biotinylated peptide and the detection reagents. Subsequently the amount of phosphorylated substrate was evaluated by measurement of the resonance energy transfer from the Eu-chelate to the streptavidine-XL. Therefore, the fluorescence emissions at 620 nm and 665 nm after excitation at 350 nm was measured in a TR-FRET reader, e.g. a Pherastar FS (BMG Labtechnologies, Offenburg, Germany) or a Viewlux (Perkin-Elmer). The ratio of the emissions at 665 nm and at […] was taken as the measure for the amount of phosphorylated substrate. The data were normalised (enzyme reaction without inhibitor=0% inhibition, all other assay components but no enzyme=100% inhibition).

[1] = molecular target: T1, CYCLIN K (nuclear staining in CAL-120 cells) (Homo sapiens, UniProt O75909); assay: CYCLIN K nuclear protein level: immunofluorescence high content analysis (CAL-120); assay type: cell-based; conditions: 24 h, 50% reduction of nuclear CCNK staining intensity, median, read-out: CYCLIN K degradation IF, DC50-[mol/l] (median)
T1 construct: endogenous in cells; host or cells: CAL-120 human breast cancer cells (DSMZ ACC 459)
T1 sequence (O75909 whole entry): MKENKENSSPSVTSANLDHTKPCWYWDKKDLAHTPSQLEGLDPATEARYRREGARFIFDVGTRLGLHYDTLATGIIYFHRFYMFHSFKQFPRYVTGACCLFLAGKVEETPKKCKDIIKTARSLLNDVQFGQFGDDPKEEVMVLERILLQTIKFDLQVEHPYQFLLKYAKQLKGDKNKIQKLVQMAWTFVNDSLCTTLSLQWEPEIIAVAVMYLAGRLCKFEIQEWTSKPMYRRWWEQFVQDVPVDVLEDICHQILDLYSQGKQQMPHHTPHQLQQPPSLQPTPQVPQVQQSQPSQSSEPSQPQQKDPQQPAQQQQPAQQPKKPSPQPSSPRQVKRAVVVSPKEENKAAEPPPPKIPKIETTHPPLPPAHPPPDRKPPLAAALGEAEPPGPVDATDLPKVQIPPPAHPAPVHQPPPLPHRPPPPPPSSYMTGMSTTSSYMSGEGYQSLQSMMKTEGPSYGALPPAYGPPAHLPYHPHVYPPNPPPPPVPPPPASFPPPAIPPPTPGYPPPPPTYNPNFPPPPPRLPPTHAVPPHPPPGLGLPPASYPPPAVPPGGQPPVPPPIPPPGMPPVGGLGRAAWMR
T1 sequence (Q9NYV4 whole entry partner): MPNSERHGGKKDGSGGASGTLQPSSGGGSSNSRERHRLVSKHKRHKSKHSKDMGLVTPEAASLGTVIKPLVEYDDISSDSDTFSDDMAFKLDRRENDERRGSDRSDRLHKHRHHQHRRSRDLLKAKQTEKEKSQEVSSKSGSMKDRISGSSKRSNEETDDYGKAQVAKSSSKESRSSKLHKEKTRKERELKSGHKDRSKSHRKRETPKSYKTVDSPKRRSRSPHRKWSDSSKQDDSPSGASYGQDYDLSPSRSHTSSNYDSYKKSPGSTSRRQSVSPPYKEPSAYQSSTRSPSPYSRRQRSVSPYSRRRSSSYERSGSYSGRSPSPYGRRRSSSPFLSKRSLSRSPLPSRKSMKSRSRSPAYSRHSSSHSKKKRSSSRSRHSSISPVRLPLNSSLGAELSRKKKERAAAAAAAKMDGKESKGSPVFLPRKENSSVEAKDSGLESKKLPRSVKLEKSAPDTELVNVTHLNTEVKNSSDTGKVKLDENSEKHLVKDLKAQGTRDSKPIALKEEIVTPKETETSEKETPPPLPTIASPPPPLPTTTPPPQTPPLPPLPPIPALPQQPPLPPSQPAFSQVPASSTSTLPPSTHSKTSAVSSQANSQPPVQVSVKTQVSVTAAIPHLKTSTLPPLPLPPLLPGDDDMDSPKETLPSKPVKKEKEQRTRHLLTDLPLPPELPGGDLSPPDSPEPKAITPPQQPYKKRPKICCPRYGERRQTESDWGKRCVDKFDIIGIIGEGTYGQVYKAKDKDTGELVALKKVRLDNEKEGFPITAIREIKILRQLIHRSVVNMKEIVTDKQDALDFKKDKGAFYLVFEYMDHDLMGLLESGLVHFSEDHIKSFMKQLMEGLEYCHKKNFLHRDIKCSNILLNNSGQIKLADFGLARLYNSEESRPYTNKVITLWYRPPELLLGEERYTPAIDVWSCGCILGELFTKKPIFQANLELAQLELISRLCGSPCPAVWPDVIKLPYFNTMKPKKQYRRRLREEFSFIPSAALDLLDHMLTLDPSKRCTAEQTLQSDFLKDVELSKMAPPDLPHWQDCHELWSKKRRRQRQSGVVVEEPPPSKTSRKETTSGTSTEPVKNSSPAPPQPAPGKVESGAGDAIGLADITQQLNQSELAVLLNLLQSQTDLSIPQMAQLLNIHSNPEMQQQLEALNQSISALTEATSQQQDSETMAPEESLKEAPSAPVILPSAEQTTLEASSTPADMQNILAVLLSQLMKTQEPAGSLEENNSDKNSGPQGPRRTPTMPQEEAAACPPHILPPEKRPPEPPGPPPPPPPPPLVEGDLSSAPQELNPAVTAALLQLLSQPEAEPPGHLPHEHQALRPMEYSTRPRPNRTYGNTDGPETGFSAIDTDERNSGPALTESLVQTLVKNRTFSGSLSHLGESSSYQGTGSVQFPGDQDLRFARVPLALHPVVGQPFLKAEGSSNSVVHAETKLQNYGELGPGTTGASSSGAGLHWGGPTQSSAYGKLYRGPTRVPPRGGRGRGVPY
Method: 8. CYCLIN K nuclear protein level: immunofluorescence High Content Analysis
CAL-120 human breast cancer cells (DSMZ ACC 459) are seeded in 1536-well microtiter plates (800 cells per well) containing 50 nanoL of compounds in Dose-Response. Control wells received DMSO or Example 4. Plates are then incubated for 24 h at 37° C. in an humidified incubator and fixed with 4% PFA for 10 min. Then immunofluorescence (IF) against CYCLIN K (ThermoFisher Scientific CONK Antibody #PA5-85020, rabbit, 1:200 dilution) is performed using standard IF protocols. Cells are then stained with Hoechst 33342 (Life Technologies, H-1399, 0.1 microg/ml) and imaged on an automated confocal microscopy system (e.g. Perkin Elmer Opera Phenix). Nuclear and cytoplasmic intensity as well as the nuclear/cytoplasmic intensity ratio is determined by automated image analysis using custom generated scripts (MetaXpress). Data is then transferred to Genedata Screener software, normalized to DMSO and control and DC50 values (degrading concentration to achieve 50% reduction of nuclear CCNK staining intensity relative to controls) are reported.

[2] = tested on: BRCA1 mRNA expression in MDA-MB-231 cells; assay: qRT-PCR assay: BRCA1 mRNA expression in MDA-MB-231; assay type: cell-based, human; conditions: Homo sapiens, MDA-MB-231, Inhibition of BRCA1 mRNA expression in MDA-MB-231 cells; median; read-out: RTqPCR-MDA-MB-231, IC50, BRCA1 (median)
Method: 3. qRT-PCR Assay: BRCA, ATR, MCL1 in MDA-MB-231, CAL-120
Tissue cultured human MDA-MB-231 human breast cancer cells were plated in 500 microL per well at 200,000 cells/well in a 24 well microtiter plate. After 24 h, the cells were exposed continuously for 24 h to test substances (substances were added with Tecan HP 0300 Dispenser). RNA was prepared using Qiagen RNeasy MiniKit (#74106), RNA was quantified using a NanoDrop Equipment, and 600 nano gamms of RNA was coverted to cDNA using a SuperScript VILO kit (Thermofisher #11755050) followed by qPCR amplification. BRCA1 and ATR gene expression was measured by RT-qPCR and normalised to GAPDH housekeeping gene expression. qPCR primer sets have been purchased from Thermo Fisher Scientific/Applied Biosystems: BRCA1, #Hs 01556193; ATR, #Hs 00992123; GAPDH, #Hs 03929097.

CDK12/CycK, sequence (Q9NYV4 with tags, fused parts or gaps): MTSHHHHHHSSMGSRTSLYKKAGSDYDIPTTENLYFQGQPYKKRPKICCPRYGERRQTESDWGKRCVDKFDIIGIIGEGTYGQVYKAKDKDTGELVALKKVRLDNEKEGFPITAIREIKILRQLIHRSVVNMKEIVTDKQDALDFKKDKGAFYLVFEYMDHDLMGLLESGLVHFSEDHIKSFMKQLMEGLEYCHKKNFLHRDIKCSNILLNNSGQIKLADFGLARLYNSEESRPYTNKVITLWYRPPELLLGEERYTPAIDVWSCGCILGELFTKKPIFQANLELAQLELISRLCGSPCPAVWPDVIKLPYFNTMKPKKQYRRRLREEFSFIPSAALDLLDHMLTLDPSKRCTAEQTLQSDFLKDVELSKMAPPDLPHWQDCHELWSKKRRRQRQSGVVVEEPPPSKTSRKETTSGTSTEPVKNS
CDK12/CycK, sequence (O75909 1-300 partner limits assumed): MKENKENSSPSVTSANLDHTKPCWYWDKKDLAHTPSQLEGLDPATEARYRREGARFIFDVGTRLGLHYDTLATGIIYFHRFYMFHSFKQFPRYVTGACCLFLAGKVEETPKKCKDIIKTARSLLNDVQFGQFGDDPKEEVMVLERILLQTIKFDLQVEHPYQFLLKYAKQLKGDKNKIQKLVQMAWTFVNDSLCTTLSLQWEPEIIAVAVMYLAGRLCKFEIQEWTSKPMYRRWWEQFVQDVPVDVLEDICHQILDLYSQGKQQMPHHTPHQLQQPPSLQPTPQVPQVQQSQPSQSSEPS

Row | Structure (SMILES) | IC50 (CDK12/CycK) [nM] | DC50 [1] [nM] | IC50 [2] [nM]
1 | Fc1ccc(-c2nnc(CNc3nc(N4CCOCC4)nc4c(Br)cnn34)[nH]2)cc1F [Example 99, 8-bromo-N-{[5-(3,4-difluorophenyl)-4H-1,2,4-triazol-3-yl]methyl}-2-(morpholin-4-yl)pyrazolo[1,5-a][1,3,5]triazin-4-amine] | 1540 | 3.05 | 11.2
2 | CC(C)c1cnn2c(NCc3nc4ccccc4[nH]3)nc(N3CCOC[C@@H]3C)nc12 [Example 6, N-[(1H-benzimidazol-2-yl)methyl]-2-[(3S)-3-methylmorpholin-4-yl]-8-(propan-2-yl)pyrazolo[1,5-a][1,3,5]triazin-4-amine] | 1780 | 2.36 | 5.43
3 | c1ccc2[nH]c(CNc3nc(N4CCOCC4)nc4c(-c5ccncc5)cnn34)nc2c1 [Example 111, N-[(1H-benzimidazol-2-yl)methyl]-2-(morpholin-4-yl)-8-(pyridin-4-yl)pyrazolo[1,5-a][1,3,5]triazin-4-amine hydrogen chloride (1/1)] | > 1630 | 1 | 15.3
4 | CCC1COCCN1c1nc(NCc2nc3ccccc3[nH]2)n2ncc(Br)c2n1 (stereo not shown) [Example 116, N-(1H-benzimidazol-2-ylmethyl)-8-bromo-2-(3-ethylmorpholin-4-yl)pyrazolo[1,5-a][1,3,5]triazin-4-amine] | 6730 | 4.92 | 123
5 | Cc1cccc2[nH]c(CNc3nc(N4CCOCC4)nc4c(Br)cnn34)nc12 [Example 150, 8-bromo-N-[(4-methyl-1H-benzimidazol-2-yl)methyl]-2-(morpholin-4-yl)pyrazolo[1,5-a][1,3,5]triazin-4-amine] | 2660 | 1.48 | 13
6 | CC(C)c1cnn2c(NCc3nc4ccccc4[nH]3)nc(N(C)CC(C)(C)O)nc12 [Example 5, 1-{[4-{[(1H-benzimidazol-2-yl)methyl]amino}-8-(propan-2-yl)pyrazolo[1,5-a][1,3,5]triazin-2-yl](methyl)amino}-2-methylpropan-2-ol] | 5170 | 1.95 | 23.3
7 | C[C@@H]1CN(c2nc(NCc3nc4c(F)cccc4[nH]3)n3ncc(Br)c3n2)C[C@H](C)O1 [Example 109, 8-bromo-2-[(2R,6S)-2,6-dimethylmorpholin-4-yl]-N-[(4-fluoro-1H-benzimidazol-2-yl)methyl]pyrazolo[1,5-a][1,3,5]triazin-4-amine] | 176 | 0.115 | 1.34
8 | CC1CN(C)CCN1c1nc(NCc2nc3ccccc3[nH]2)n2ncc(Br)c2n1 (stereo not shown) [Example 156, N-(1H-benzimidazol-2-ylmethyl)-8-bromo-2-(2,4-dimethylpiperazin-1-yl)pyrazolo[1,5-a][1,3,5]triazin-4-amine] | 9400 | 0.249 | 
9 | C[C@@H]1CN(c2nc(NCc3nc4cc(F)ccc4[nH]3)n3ncc(Br)c3n2)C[C@H](C)O1 [Example 110, 8-bromo-2-[(2R,6S)-2,6-dimethylmorpholin-4-yl]-N-[(5-fluoro-1H-benzimidazol-2-yl)methyl]pyrazolo[1,5-a][1,3,5]triazin-4-amine] | 405 | 0.354 | 7.51
10 | COc1ccc2[nH]c(CNc3nc(N4CCN(C)CC4)nc4c(Br)cnn34)nc2c1 [Example 161, 8-bromo-N-[(5-methoxy-1H-benzimidazol-2-yl)methyl]-2-(4-methylpiperazin-1-yl)pyrazolo[1,5-a][1,3,5]triazin-4-amine] | 9610 | 1.3 | 2.53
11 | CC1(C)CN(c2nc(NCc3nnc(-c4ccccc4)[nH]3)n3ncc(C4CC4)c3n2)CCO1 [Example 94, 8-cyclopropyl-2-(2,2-dimethylmorpholin-4-yl)-N-[(5-phenyl-4H-1,2,4-triazol-3-yl)methyl]pyrazolo[1,5-a][1,3,5]triazin-4-amine] | 8790 |  | 222

More lines, in order of falling IC50 (CDK12/CycK), values ahead:

Row | IC50 (CDK12/CycK) [nM] | DC50 [1] [nM] | IC50 [2] [nM] | Structure (SMILES)
12 | 10300 | 0.765 | 71.9 | Brc1cnn2c(NCc3nc4ccccc4[nH]3)nc(N3C[C@@H]4C[C@H]3CO4)nc12 [Example 103, N-[(1H-benzimidazol-2-yl)methyl]-8-bromo-2-[(1S,4S)-2-oxa-5-azabicyclo[2.2.1]heptan-5-yl]pyrazolo[1,5-a][1,3,5]triazin-4-amine]
13 | 4460 | 0.367 | 0.883 | Cc1ccc2[nH]c(CNc3nc(N4CCN(C)CC4)nc4c(Br)cnn34)nc2c1 [Example 158, 8-bromo-N-[(5-methyl-1H-benzimidazol-2-yl)methyl]-2-(4-methylpiperazin-1-yl)pyrazolo[1,5-a][1,3,5]triazin-4-amine]
14 | 4120 | 0.464 | 33.8 | CN1CCN(c2nc(NCc3nnc(-c4cccc(F)c4)[nH]3)n3ncc(Br)c3n2)CC1 [Example 136, 8-bromo-N-{[5-(3-fluorophenyl)-4H-1,2,4-triazol-3-yl]methyl}-2-(4-methylpiperazin-1-yl)pyrazolo[1,5-a][1,3,5]triazin-4-amine]
15 | 1740 | 2.46 | 7.13 | Brc1cnn2c(NCc3nc4ccccc4[nH]3)nc(N3CCOCC3)nc12 [Example 4, N-[(1H-benzimidazol-2-yl)methyl]-8-bromo-2-(morpholin-4-yl)pyrazolo[1,5-a][1,3,5]triazin-4-amine]
16 | 1240 | 0.743 | 2.95 | COc1ccc2[nH]c(CNc3nc(N4CCOCC4)nc4c(Br)cnn34)nc2c1 [Example 160, 8-bromo-N-[(5-methoxy-1H-benzimidazol-2-yl)methyl]-2-(morpholin-4-yl)pyrazolo[1,5-a][1,3,5]triazin-4-amine]
